Test results from US9303009B2, “Migrastatins and uses thereof” (Sloan-Kettering Institute for Cancer Research, priority 2011, dated 2016).

Legend:
[1] = test system: lung cancer (H299-GL, H522-GL, H647-GL, A549-GL, H1993, H1075-GL, H1373-GL H1703 cells); test: toxicity by alamarBlue, lung cancer cell lines; assay type: cell-based; details: mean of 8 cell lines
Method: Dilutions of DMSO without compound were used as a control. After 18 hrs or 2 days, the cultures were pulsed with 6 μl of alamarBlue® (Invitrogen Inc. Grand Island, N.Y.) and incubated overnight. The alamarBlue® provides a cell growth indicator based on detection of metabolic activity. The assay system incorporates an oxidation-reduction indicator that both fluoresces and changes color in response to chemical reduction of growth medium resulting from cell growth. The fluorescence intensity was measured using a Synergy H1 Microplate Reader (Biotek Inc, Winooski, VT) and a dose-response curve established for IC50 determination.

[2] = test system: human tumor cell lines of multiple myeloma and lung cancer; test: toxicity by alamarBlue, whole panel; assay type: cell-based
Method: (§1) The toxicity of compounds 42-45 and their IC50 was determined on a panel of human tumor cell lines of multiple myeloma (RPMI8226, MM1S, MM1R, ARP-GL, CAG-GL, OPM2-GL, SKO-007-GL, U266-GL,) and lung cancer (H299-GL, H522-GL, H647-GL, A549-GL, A549-GL, HI993, H1075-GL, HI373, H17030) origin. Tumor cells were dissociated into a single-cell suspension by Trypsin/Collagenase IV treatment and 500 cells per well were aliquoted into each well of 384 microwell plates in 50 μl of RPMI medium with 10% FCS. Compounds 42-45 were dissolved in DMSO and serially diluted in RPMI medium plus 10% FCS and added (1 mM to 1 nM) to quadruplicate wells containing tumor cells. Dilutions of DMSO without compound were used as a control. After 18 hrs or 2 days, the cultures were pulsed with 6 μl of alamarBlue® (Invitrogen Inc. Grand Island, N.Y.) and incubated overnight. The alamarBlue® provides a cell growth indicator based on detection of metabolic activity. The assay system incorporates an oxidation-reduction indicator that both fluoresces and changes color in response to chemical reduction of growth medium resulting from cell growth. The fluorescence intensity was measured using a Synergy H1 Microplate Reader (Biotek Inc, Winooski, VT) and a dose-response curve established for IC50 determination.

[3] = test system: multiple myeloma (RPMI8226, MM1S, ARP-GL, CAG-GL, OPM2-GL, SKO-007-GL, U266-GL, MM1R cells); test: toxicity by alamarBlue, multiple myeloma cell lines; assay type: cell-based, human; details: mean of 8 cell lines
Method: as §1

[4] = test system: H929 multiple myeloma cells; test: multiple myeloma transwell migration towards SDF-1α; assay type: cell-based; details: pretreatment 8 h, transmigration 6 h
Method: (§2) Multiple myeloma cell chemotaxis was performed towards a SDF-1α in a modified Boyden chamber consisting of a cell culture insert (4.26 mm diameter, 8-μm pore polyester membrane) seated in each well of a 96-well plate (HTS Transwell-96 System, Corning). Briefly, multiple myeloma cells were grown as subconfluent cultures then starved for 24 hours in serum-free IMDM medium. Single-cell suspensions were prepared by mechanical dissociation, then the cells were counted and a total of 5.10^4 cells suspended in serum-free IMDM medium were seeded into the upper chamber, then positioned in a 96-well plate, containing medium with or without SDF-1α (at 200 ng/mL). […] Migrastatin analogs or DMSO (vehicle) were added to the medium at 0.5% in both chambers. Migration assays were carried out for 6 hours in a humidified incubator at 37° C. with 5% CO2. At the assay endpoint, the inserts were removed and the migrating cells were counted in the well. The migration in response to the test condition was calculated relative to the DMSO vehicle control.

[5] = test system: CAG multiple myeloma cells; test: as above; assay type: cell-based; details: pretreatment 8 h, transmigration 6 h
Method: as §2

SMILES	Estimated lethal doses (LD50) ([1]; 18 h exposure) [µM]	Estimated lethal doses (LD50) ([1]; 48 h exposure) [µM]	IC50 [2] [µM]	Estimated lethal doses (LD50) ([3]; 18 h exposure) [µM]	Estimated lethal doses (LD50) ([3]; 48 h exposure) [µM]	% of migration relative to DMSO control ([4]; 5 μM) [%]	% of migration relative to DMSO control ([4]; 250 μM) [%]	% of migration relative to DMSO control ([5]; 5 μM) [%]	% of migration relative to DMSO control ([5]; 250 μM) [%]
COC(=O)CO[C@H]1[C@H](C)/C=C(/C)COCCCCC/C=C/[C@@H]1OC [Compound 42]	741.2	602.7	300 to 795	515.2	476.4	91.03	7.08	93.63	0.23
CO[C@H]1/C=C/CCCCCOC/C(C)=C\[C@@H](C)[C@@H]1OCCO [Compound 43]	523.9	510.7	300 to 795	530.8	406.1	52.26	0.98	82.04	0.71
CNC(=O)CO[C@H]1[C@H](C)/C=C(/C)COCCCCC/C=C/[C@@H]1OC [Compound 44]	299.7	316.7	300 to 795	182.5	210.6	81.48	4.06	86.22	0.05
CCNC(=O)O[C@H]1[C@H](C)/C=C(/C)COCCCCC/C=C/[C@@H]1OC [Compound 45]	446.9	446.8	300 to 795	275.6	217.3	62.38	5.51	54.48	0.58
